The target of series [1] is T1, Aβ42 (Homo sapiens, UniProt P05067).
T1 construct: Aβ42 was obtained from American Peptide, Inc. (Sunnyvale, Calif.); purchased American Peptide, Inc. (Sunnyvale, Calif.)
As to the kind of experiment: Aβ42 oligomerization inhibition assay (Western blot). It counts as biochemical. The following applies: Aβ42 5 μM, compound 20 μM, 4 hrs at 37° C. On the technique in general: A western blot detects proteins with antibodies after separation by electrophoresis.
Protocol: In order to confirm 14 can bind to AβOs, the inhibition of Aβ42 oligomerization was performed and assessed using Western blot analysis as described in literature^29 in order to investigate binding interactions of 14 with Aβ42 and the CM/LR of MC65 cells. Briefly, Aβ42 (5 μM) was incubated with or without compounds (20 μM), then samples were analyzed by Western blot using 6E10 antibody.
Aβ42 oligomerization inhibition assay. An aliquot of Aβ42 (0.045 mg) was dissolved in 20 μL of DMSO and diluted in Ham's F-12 media without phenol red (Caisson's Laboratory, Inc., Utah). […] After incubation, the samples (50 μL) were spun down at 14,000×g for 10 min. The supernatant (20 μL) was mixed with an equal part of Tricine sample buffer without reducing agents (Bio-Rad). The unaggregated Aβ42 control was not incubated at 37° C., and mixed with sample buffer (no centrifuging) and stored at −80° C. before it was electrophoresed. Samples (25 μL) were electrophoresed on a 10-20% Tris-Tricine gel, transferred to PVDF membrane, and blocked with 10% nonfat milk in PBS for 30 min. […] The proteins were visualized by Western Blot Chemiluminescence Reagent (NEN Life Science Products, Boston, Mass.).

Series [2] deals with SH-SY5Y cells. The experiment in a line: Cytotoxicity assay in differentiated SH-SY5Y cells treated with AβOs. It is filed as cell-based, human. The following applies: AβOs 1 μM, 48 hrs, all of the tested concentrations.
Series [3] in a line: in vitro. To be noted: human, Caco-2. On the procedure: Assessment of permeability and P-glycoprotein using Caco-2 cell model. […] To test whether 14 has the potential to reach the brain, we determined its permeability and transport directionality using the Caco-2 model.^48 Although the Caco-2 cell monolayer model is derived from the colon rather than the brain, this model expresses efflux transporters such as P-glycoprotein which are also expressed at the BBB.
Caco-2 permeability assay. Caco-2 cells (ATCC, Manassas, Va.) were cultured in high-glucose DMEM supplemented with 10% FBS and used between passages 30-50. Caco-2 cells were plated on 12-well polyester transwell inserts ([…] pore size) (Coming #3460) at a density of 80,000 cells/cm^2 and grown to 100% confluence (21 days). Filters were rinsed in Hank's balanced salt solution (HBSS) and test compounds (10 μM) were added to either the apical (0.5 mL) or basolateral (1.5 mL) side and incubated at 37° C. with shaking (100 rpm). Samples (200 μL) were removed at 30, 60, and 120 minutes with replacement of an equal volume of the appropriate buffer containing or lacking the compounds. Samples were stored at −20° C. until analysis. After 120 minutes, lucifer yellow was added to the donor chamber, with additional sampling as above at 10, 20, and 30 minutes. Lucifer yellow was analyzed by fluorescence (excitation 450 nm, emission 528 nm) in a Synergy 2 microplate reader. […] Buffer samples (200 μL) were mixed with acetonitrile (100 μL) and acetic acid (2 μL), vortexed and centrifuged at 4° C. for 5 minutes at 12,000 ref. Supernatants (100 μL) were injected onto an Alltech Alltima HP C18 4.6×100 mm 3 μm column and eluted with 38% acetonitrile, 62% aqueous (1% acetic acid in water) at 1.0 mL/min. To improve sensitivity over UV detection, fluorescence (Waters 2475) at the excitation/emission wavelengths of 443/533 and 274/305 (nm) for 1 and 14, respectively, was also detected. Permeability was determined according to Fick's Law. Efflux transport activity was defined as a permeability directional ratio (efflux ratio) ≧2.

Series [4] concerns the target T2, Aβ42 monomers (Homo sapiens, UniProt P05067).
T2 construct: The monomers, oligomers and fibrils of Aβ42 were prepared according to established protocols and confirmed by TEM
As to the kind of experiment: Fluorescence polarization binding to Aβ42 monomers. To be noted: compound 1 μM, 3 hrs, read-out: apparent binding constant (Kd) for Aβ42 monomers. On the procedure:
(§1) FIG. 8A-C. BMAOI 14 binds to Aβ42 monomers, oligomers, and fibrils, but not BSA. A. The monomers, oligomers and fibrils of Aβ42 were prepared according to established protocols and confirmed by TEM; B. Compound 14 (1 μM) was incubated with different forms of Aβ42 at indicated concentrations for 3 hrs. Then, fluorescence polarization change of 14 was recorded and the binding affinity was calculated; C. Compound 14 was incubated with BSA as described in B and the binding affinity was calculated.
(§2) To determine the binding affinity of 14 to Aβ, we evaluated changes in fluorescence polarization values of this probe at different 14:Aβ ratios for monomeric, oligomeric, and fibrillary Aβ species, respectively. Aβ42 is chosen to evaluate the binding of probe as it is the major and most sticky amyloid peptide found in AD plaques.^1 The formation of different Aβ42 species was confirmed by transmission electron microscope (TEM) as shown in FIG. 8A. […] It appears that 14 binds to Aβ42 with micromolar affinity and slightly favors […] fibrils over monomers and oligomers.
On the technique in general: Fluorescence polarisation rises when a labelled molecule tumbles more slowly, as on binding a larger partner.

Series [5] has as its target T3, Aβ42 oligomers (Homo sapiens, UniProt P05067).
T3 construct: The monomers, oligomers and fibrils of Aβ42 were prepared according to established protocols and confirmed by TEM
The experiment in a line: Fluorescence polarization binding to Aβ42 oligomers. The following applies: compound 1 μM, 3 hrs, read-out: apparent binding constant (Kd) for Aβ42 oligomers. As for the experimental part:
as §1, §2

Series [6] concerns the target T4, Aβ42 fibrils (Homo sapiens, UniProt P05067).
T4 construct: The monomers, oligomers and fibrils of Aβ42 were prepared according to established protocols and confirmed by TEM
The experiment in a line: Fluorescence polarization binding to Aβ42 fibrils. To be noted: compound 1 μM, 3 hrs, read-out: apparent binding constant (Kd) for Aβ42 fibrils. As for the experimental part: as §1, §2

For series [7], the target named is bovine serum albumin (BSA) (Bos taurus, UniProt P02769). The experiment in a line: Fluorescence polarization binding to BSA. To be noted: read-out: binding affinity to BSA (Kd). On the procedure: as §1, §2
Chain of bovine serum albumin (BSA) (P02769 25-607): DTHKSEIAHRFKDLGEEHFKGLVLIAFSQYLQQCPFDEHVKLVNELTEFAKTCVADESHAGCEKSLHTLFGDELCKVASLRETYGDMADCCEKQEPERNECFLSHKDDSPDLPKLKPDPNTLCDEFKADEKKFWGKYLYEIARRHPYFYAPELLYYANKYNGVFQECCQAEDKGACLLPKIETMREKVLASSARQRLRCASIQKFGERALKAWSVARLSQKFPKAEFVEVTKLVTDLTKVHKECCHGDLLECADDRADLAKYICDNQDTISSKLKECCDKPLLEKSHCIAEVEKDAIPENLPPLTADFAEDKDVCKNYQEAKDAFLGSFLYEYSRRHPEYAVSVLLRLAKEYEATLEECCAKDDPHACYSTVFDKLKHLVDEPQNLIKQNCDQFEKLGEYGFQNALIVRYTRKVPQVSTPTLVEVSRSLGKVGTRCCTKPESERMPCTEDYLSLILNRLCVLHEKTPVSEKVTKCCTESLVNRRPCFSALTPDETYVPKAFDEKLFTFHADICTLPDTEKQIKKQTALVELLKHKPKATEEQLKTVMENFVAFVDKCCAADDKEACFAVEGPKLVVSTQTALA
The target in series [8] is T4, Aβ42 fibrils. As to the kind of experiment: Fluorescence emission before and after mixing with Aβ42 fibrils. It is filed as binding. The following applies: compound 1 μM. As for the experimental part: FIG. 9. Fluorescence emission of 14 (1 μM) before and after mixing with Aβ42 fibrils.
To examine the change of fluorescence properties upon binding to Aβ42, we compared the fluorescence properties of free 14 in aqueous solution to its fluorescence properties in the presence of Aβ42 fibrils as this chemical probe will be used to detect Aβ plaques. […] A blue shift in the emission spectra of 10 nm was also observed upon association with Aβ42 fibrils.

Broadly, the Papp A→B is the apparent permeability from the apical to the basolateral side of a cell layer. As a reminder, the Papp B→A is the apparent permeability from the basolateral to the apical side of a cell layer. A word on the efflux ratio: it is a quotient of directional permeabilities that is used to spot active efflux.

Each structure is given as a SMILES string.

T4 sequence (P05067 672-713 limits assumed): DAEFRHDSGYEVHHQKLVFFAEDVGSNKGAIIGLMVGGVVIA
T1 sequence (P05067 672-713 limits assumed): as above
T2 sequence (P05067 672-713 limits assumed): as above
T3 sequence (P05067 672-713 limits assumed): as above

Take `COc1cc(C=CC(=O)C(Cc2cn(CCCCCCNC(=O)CCNC(=O)CCNC(=O)COC3CCC4(C)C(=CCC5C4CCC4(C)C(C(C)CCCC(C)C)CCC54)C3)nn2)C(=O)C=Cc2ccc(O)c(OC)c2)ccc1O` (centres unmarked) [BMAOI 14]: the “inhibition of oligomerization of Aβ42” value in series [1] is given as “inhibited the oligomerization of Aβ42”. Also, in series [2], the “protection of SH-SY5Y cell viability from AβOs” value is listed as “completely restored the cell viability”. Also, in series [3], the Papp A→B at 120 min, 10 µM was 7.1 ×10⁻⁶ cm/s. Besides, the basolateral-to-apical permeability (Papp B→A) at 120 min, 10 µM in series [3] was determined as 4.7 ×10⁻⁶ cm/s. Moreover, the efflux ratio at 120 min, 10 µM in series [3] came to 0.63. Besides, the Kd in series [4] was 2030 nM; in series [5], 2170 nM; in series [6] it was 830 nM; in series [7] it was ~120000 nM. Moreover, the “increase of emission intensity upon binding to Aβ42 fibrils” value in series [8] (Aβ42=5 μM, excitation 430 nm) was 4.5 fold. The “blue shift in the emission spectra upon association with Aβ42 fibrils” value in series [8] was 10 nm.
